Data on six compounds can be found in article PMC8424629, “Chemical “Butterfly Effect” Explaining the Coordination Chemistry and Antimicrobial Properties of Clavanin Complexes” (Inorganic Chemistry, 2021).

≈ marks a conversion by molar mass, not a printed value. Like-named read-outs stand apart in the source and are kept apart here.

Series [1] is classed as physicochemical. The settings on record: for log β H2L / log β H3L / log β H4L / log β H5L / log β H6L / log β HL: potentiometry pH 2-11, 298 K, 4 mM HClO4, I = 40 mM SDS, ligand 0.5 mM, SD in parentheses. Here is the method:
(§1) All peptides ([…]-COOH, […]-COOH, […]
(§2) were purchased from KareBay Biochem (USA) (certified purity: 98 %) and were used as received.
(§3) The carbonate-free stock solutions of 0.1 M NaOH were purchased from Sigma-Aldrich and then potentiometrically standardized with the primary standard potassium hydrogen phthalate (99.9 % purity). […]
(§4) Stability constants for proton, Zn(II) and Cu(II) complexes were calculated from pH -metric titration curves carried out over the pH range 2-11 at T = 298 K in water solution of 4 mM HClO 4 and ionic strength 40 mM (SDS), using a total volume of 3 ml. The potentiometric titrations were performed using a Metrohm Titrando 905 titrator and a Mettler Toledo InLab Micro comb ined pH electrode. The thermostabilized glass -cell was equipped with a magnetic stirring system, a microburette delivery tube and an inlet –outlet tube for argon.
(§5) Solutions were titrated with 0.1 M carbonate-free NaOH. The electrodes were calibrated daily f or hydrogen ion concentration by titrating HClO 4 with NaOH under the same experimental conditions as above. The purities and the exact concentrations of the ligand solutions were determined by the Gran method. 1 The ligand concentration was 0.5 mM. The Zn(II) and Cu(II) to ligand ratio was 1 : 1.
(§6) The standard potential and the slope of the electrode couple were computed by means of Glee 2 program. The HYPERQUAD 20063 program was used for the stability constant calculations. The standard deviations were computed by HYPERQUAD 2006 and refer to random errors only. The constants for the hydrolytic Zn(II ) species

Series [2] is classed as binding. How it is done: as §1, §2, §3, §4, §5, §6
The test system of series [3] is Enterococcus faecalis ATCC 29212. The settings on record: ATCC 29212, 24 h.
Series [4] has as its system Candida albicans ATCC 10231. The following applies: ATCC 10231, 24 h.
Series [5] deals with E. coli. The following applies: literature describes C-amidated clavanins, cited from earlier work. The source says:
During the over 20-year study on clavanins (mainly clavanin A), various modes of action were proposed.[15],[18],[19] […] The second is observed at acidic pH (5.5) when clavanin A binds to DNA and disrupts DNA synthesis, similarly to indolicidin.[20] The third mechanism, which also occurs at pH 5.5, is assigned not to the “single” clavanin A but to its Zn(II) complex, which cleav ...

Series [6] deals with Candida albicans ATCC 10231. As to the kind of experiment: microbe, parasite or virus in culture. The following applies: ATCC10231, 24 h.
Series [7] deals with MRSA Staphylococcus aureus ATCC 43300. The settings on record: ATCC 43300, 24 h.
Series [8] concerns Escherichia coli ATCC 25922. The following applies: ATCC 25922, 24 h.
Series [9] relates to Pseudomonas aeruginosa ATCC 27853. Nature of the series: MIC, broth microdilution, reference strain. The format is cell-based. The following applies: ATCC27853, microdilution 0.5-256 µg/mL, TSB, 24 h, 37 °C, OD 580 nm. On the technique in general: In broth dilution the organism is exposed to a series of concentrations in liquid medium.
Series [10] has as its system Enterococcus faecalis ATCC 29212. As to the kind of experiment: microbe, parasite or virus in culture. The following applies: ATCC29212, 24 h.
The test system of series [11] is MRSA Staphylococcus aureus ATCC 43300. As to the kind of experiment: microbe, parasite or virus in culture. The settings on record: 24 h.
The test system of series [12] is Escherichia coli ATCC 25922. As to the kind of experiment: microbe, parasite or virus in culture. The settings on record: ATCC25922, 24 h.
Setting [13] is: potentiometry, 298 K, I = 40 mM SDS, Cu(II):L 1:1, 0.5 mM, SD in parentheses.
[14] abbreviates: potentiometry, 298 K, I = 40 mM SDS, Zn(II):L 1:1, 0.5 mM, SD in parentheses.

For the compound “H-VFQFLGKIIHHVGNFVHGFSHVF-OH [Clavanin A]”, in series [1], the “pKa, species H2L” value came to 8.88; the “pKa, species H3L” value is given as 8.09; the “pKa, species H4L” value came out at 7.63; the “pKa, species H5L” value is listed as 6.92. Moreover, in series [1], the “pKa, species H6L” value was 5.32; the “pKa, species HL” value turned out to be 10.18; the “log β H2L” value is listed as 19.06 (6); the “log β H3L” value is reported as 27.15 (8). For the same compound, in series [1], the “log β H4L” value is 34.78 (7), the “log β H5L” value is recorded as 41.7 (8), the “log β H6L” value was 47.02 (10) and the “log β HL” value is listed as 10.18 (6). Further, in [2], the “pKa, line CuH2L” value was determined as 6.82; the “pKa, line CuH3L” value turned out to be 6.01; the “pKa, line CuH-1L” value was found to be 8.82; the “pKa, line CuH-2L” value is given as 9.76. Moreover, in series [2], the “pKa, line CuH-3L” value is 10.16; the “pKa, line CuHL” value amounted to 7.56; the “pKa, line CuL” value came out at 8.36; the “pKa, line ZnH2L” value is recorded as 7.15. Further, in series [2], the “pKa, line ZnH3L” value was determined as 6.59; the “pKa, line ZnHL” value is listed as 8.53; the “pKa, line ZnL” value worked out at 9.36. For the same compound, in series [2] (setting [13]), the “log β CuH2L” value is given as 27.53 (3), the “log β CuH3L” value is recorded as 34.35 (2), the “log β CuH4L” value is reported as 40.36 (2) and the “log β CuH-1L” value is reported as 2.79 (3). Further, in series [2] (setting [13]), the “log β CuH-2L” value is -6.97 (3), the “log β CuH-3L” value is -17.13 (3), the “log β CuHL” value was 19.97 (3) and the “log β CuL” value is 11.61 (3). Besides, in [2] (setting [14]), the “log β ZnH2L” value is reported as 23.99 (2), the “log β ZnH3L” value was 31.14 (3), the “log β ZnH4L” value is 37.74 (12) and the “log β ZnHL” value is given as 15.46 (2). The “log β ZnL” value in [2] (setting [14]) is 6.10 (7). Further, the MIC in series [3] is listed as 256 µg/mL. Besides, the MIC in series [4] is 128 µg/mL. In [5] (pH 5.5, with addition of Zn(II) ions), the “minimum inhibitory concentration (MIC)” value is 4 µM. Moreover, in series [5] (pH 5.5, without Zn(II)), the “minimum inhibitory concentration (MIC)” value is 64 µM.

In series [6], `C[C@@H]1[C@H](O)[C@@H](C)/C=C/C=C/C=C/C=C/C=C/C=C/C=C/[C@H](O[C@@H]2O[C@H](C)[C@@H](O)[C@H](N)[C@@H]2O)C[C@@H]2O[C@](O)(C[C@@H](O)C[C@@H](O)[C@H](O)CC[C@@H](O)C[C@@H](O)CC(=O)O[C@H]1C)C[C@H](O)[C@H]2C(=O)O` [amphotericin B] gave an MIC of 1 µg/mL (≈ 1.08 µM).

Consider `CC[C@H](C)[C@H](NC(=O)[C@H](CCCCN)NC(=O)CNC(=O)[C@H](CC(C)C)NC(=O)[C@H](CC(C)C)NC(=O)[C@H](Cc1c[nH]cn1)NC(=O)[C@H](Cc1ccccc1)NC(=O)[C@@H](N)C(C)C)C(=O)N[C@H](C(=O)N[C@@H](Cc1c[nH]cn1)C(=O)N[C@@H](Cc1c[nH]cn1)C(=O)N[C@H](C(=O)NCC(=O)N[C@@H](CC(N)=O)C(=O)N[C@@H](Cc1ccccc1)C(=O)N[C@H](C(=O)N[C@@H](Cc1ccc(O)cc1)C(=O)NCC(=O)N[C@@H](Cc1ccccc1)C(=O)N[C@@H](CO)C(=O)N[C@@H](Cc1c[nH]cn1)C(=O)N[C@H](C(=O)N[C@@H](Cc1ccccc1)C(=O)O)C(C)C)C(C)C)C(C)C)[C@@H](C)CC` [Clavanin C], for which, in [1], the “pKa, species H2L” value is 8.87; the “pKa, species H3L” value was 8.08; the “pKa, species H4L” value came out at 7.57; the “pKa, species H5L” value amounted to 7.10. Further, in series [1], the “pKa, species H6L” value worked out at 5.25 and the “pKa, species HL” value was found to be 10.72. Also, in series [2], the “pKa, line CuH4L” value was 4.99; the “pKa, line CuH-1L” value is 8.09; the “pKa, line CuH-2L” value was found to be 10.66; the “pKa, line CuHL” value stood at 6.10. For the same compound, the “pKa, line CuL” value in series [2] is 6.98. The compound further came in with an MIC in series [3] of 128 µg/mL (≈ 48 µM). Further, the MIC in [7] stood at 128 µg/mL (≈ 48 µM). This compound also returned an MIC in series [4] of 64 µg/mL (≈ 24 µM).

“H-AFKLLGRIIHHVGNFVYGFSHVF-OH [Clavanin D]”: in series [1], the “pKa, species H2L” value is reported as 10.08; the “pKa, species H3L” value is 8.68; the “pKa, species H4L” value stood at 7.81; the “pKa, species H5L” value is 7.24. In [1], the “pKa, species H6L” value amounted to 5.26; the “pKa, species HL” value was 11.13; the “log β H2L” value is 21.21 (4); the “log β H3L” value is listed as 29.89 (5). Further, in series [1], the “log β H4L” value is on record as 37.70 (5), the “log β H5L” value was 44.94 (5), the “log β H6L” value was 50.20 (5) and the “log β HL” value is 11.13 (6). In addition, in series [2], the “pKa, line CuH2L” value is on record as 6.95; the “pKa, line CuH3L” value was 6.00; the “pKa, line CuH4L” value amounted to 5.23; the “pKa, line CuH-1L” value was 9.92. Further, in series [2], the “pKa, line CuH-2L” value amounted to 10.54; the “pKa, line CuH-3L” value amounted to 11.91; the “pKa, line CuHL” value stood at 7.94; the “pKa, line CuL” value was found to be 8.79. Moreover, the “pKa, line ZnH2L” value in [2] came to 8.22. Moreover, in series [2] (setting [13]), the “log β CuH2L” value is 30.38 (2), the “log β CuH3L” value is reported as 37.33 (2), the “log β CuH4L” value was 43.33 (1) and the “log β CuH5L” value was 48.56 (3). Moreover, in series [2] (setting [13]), the “log β CuH-1L” value was 3.73 (3), the “log β CuH-2L” value is -6.81 (4), the “log β CuH-3L” value was -18.72 (1) and the “log β CuHL” value is given as 22.44 (3). For the same compound, the “log β CuL” value in series [2] (setting [13]) is 13.65 (3). For the same compound, in series [2] (setting [14]), the “log β ZnH2L” value is listed as 25.94 (2), the “log β ZnH3L” value is on record as 34.16 (3), the “log β ZnH5L” value is on record as 47.63 (12) and the “log β ZnL” value is 6.73 (14). In series [8], the MIC is listed as 64 µg/mL. For the same compound, the MIC in series [3] was 128 µg/mL. For the same compound, in [7], the MIC is recorded as 128 µg/mL. For the same compound, the MIC in [4] was 16 µg/mL.

With `C[C@H]1COc2c(N3CCN(C)CC3)c(F)cc3c(=O)c(C(=O)O)cn1c23` [levofloxacin], the MIC stood at 1 µg/mL (≈ 2.77 µM) in series [9], 4 µg/mL (≈ 11.1 µM) in series [10] and 1 µg/mL (≈ 2.77 µM) in [11].

In turn, `CNC(C)C1CCC(N)C(OC2C(N)CC(N)C(OC3OCC(C)(O)C(NC)C3O)C2O)O1` (stereo not shown) [gentamicin] registered an MIC in series [12] of 2 µg/mL (≈ 4.19 µM).
